Each structure is given as a SMILES string.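 How tested: cells in 96-well plates exposed to compound for 48 hours at five concentrations. The concentration for 50% growth inhibition is given as GI50. TGI marks complete inhibition of growth.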

Data on 9 compounds can be found in PubChem BioAssay (NCI).

Holding throughout (experiment): DTP human tumour cell line panel, 48 h
Test [1] has as its system SN12C renal.
Test [2] relates to IGROV1 ovarian.
For test [3], the system named is KM12 colon.
The subject of test [4] is PC-3 prostate.
Test [5] concerns HCT-116 colon.
Test [6] relates to HOP-62 NSCLC.
The test system of test [7] is SF-539 CNS.
For test [8], the system named is OVCAR-5 ovarian.
Test [9] concerns HS 578T breast.
Test [10] has as its system NCI-H522 lung.

A word on the TGI: it is the concentration giving total growth inhibition. A low value points to more potent growth arrest. Consider `CCn1ncc(N=O)c1N`, for which the TGI in test [1], in test [2], in test [3], in test [4], in test [5] and in test [6] was > 100 µM in each case. Moreover, the TGI in [7], in [8], in test [9] and in test [10] was > 100 µM throughout.
In general, GI50 refers to the concentration at which growth is held to half of that of the control. As for `CCN(CC)CC(O)c1cc(-c2ccc(Cl)cc2)nc2c(C)c(Cl)ccc12` (stereo not drawn), the GI50 in test [1] was 1500 nM; in test [2] it was 1000 nM; in test [3], 1720 nM; in test [4], 1600 nM; in test [5] it was 1660 nM; in test [6] it was 1.57 µM. Besides, the GI50 in [7] was 1490 nM; in test [8], 1.74 µM; in test [9], 1.87 µM; in test [10], 1850 nM. In addition, the TGI in [1] worked out at 3.22 µM; in [2], 2.36 µM; in test [3], 3.14 µM; in test [4], 2.97 µM; in [5], 3.18 µM; in test [6] it was 2.96 µM. The TGI in [7] was determined as 3.03 µM; in [8] it was 3.37 µM; in test [9], 4.33 µM; in test [10], 3.29 µM.
Consider `Nc1nc(N)c2c(n1)CCC(S(=O)(=O)c1ccc3ccccc3c1)C2` (stereo not drawn), for which the TGI in test [1], in test [2], in [3], in test [4], in test [5] and in [6] was > 100 µM in each case. Further, the TGI in test [7] is > 100 µM; in [8], > 100 µM; in test [9], 77.6 µM; in [10], 34.5 µM. The GI50 is 1940 nM in test [2], 5.05 µM in [9] and 2940 nM in test [10].
Consider `CC#CC#C/C(=C/C=CC(=O)OC)SC`, for which the TGI in test [1], in test [2], in [3], in [4], in [5] and in [7] was > 100 µM throughout. The TGI in [8], in [9] and in [10] was > 100 µM in each case.
Regarding `COC(=O)Nc1nc2ccc(C(=O)c3ccc(F)cc3)cc2[nH]1`, the GI50 in test [1] was 841 nM; in test [2] it was 513 nM; in test [4] it was 226 nM; in test [5], 146 nM; in [6] it was 0.682 µM; in [7] it was 242 nM. Also, the results for the GI50 in [8], in [9] and in [10] were 2.45 µM, 0.146 µM and 311 nM, respectively. Moreover, the TGI in test [1] was > 100 µM; in test [2], > 66.1 µM; in test [4], > 100 µM; in [5], > 100 µM; in test [6], 29.1 µM; in test [7], 0.778 µM. Besides, the values for the TGI in test [8] and in [9] were > 100 µM and 0.502 µM, respectively.
Turning to `COc1ccc(/C=C/C(=O)/C=C(O)/C=C/c2ccc(OC)c(OC)c2)cc1OC`, the GI50 in [1] was 3500 nM; in test [2], 3430 nM; in test [3], 2840 nM; in test [4] it was 2880 nM; in test [5] it was 1830 nM; in [6], 9.23 µM. Also, the GI50 in [8] is 6.42 µM; in [9] it was 3.68 µM; in [10], 2520 nM. Besides, the TGI in test [1] is 90.9 µM; in [2], > 100 µM; in test [3], > 100 µM; in [4] it was > 100 µM; in test [5], 5.96 µM; in test [6], 49.2 µM. Also, the TGI in test [8] is 46.4 µM; in [9], > 100 µM; in test [10], 7.53 µM.
Take `O=c1/c(=C\c2ccc(Br)cc2)sc2n1C(c1ccc(Br)cc1)C1=C(N=2)c2ccc3ccccc3c2OCC1` (stereo not drawn): the GI50 in test [2] is > 100000 nM; in [3] it was > 100000 nM; in test [4], > 100000 nM; in test [5], > 100000 nM; in test [6], > 100 µM; in test [7], > 100000 nM. Moreover, the values for the GI50 in test [8], in [9] and in test [10] were > 100 µM, > 100 µM and > 100000 nM, respectively. The TGI in test [2], in test [3], in test [4], in test [5], in test [6] and in test [7] was > 100 µM throughout. Moreover, the TGI in [8], in test [9] and in test [10] was > 100 µM in each case.
With `COC(=O)[C@]12CC[C@@H](C)[C@H](C)[C@@H]1C1=CC[C@@H]3[C@@](C)(CC#N)C4=C(C[C@@]3(C)[C@]1(C)CC2)OC[C@]4(C)C=O`, the GI50 in test [2] was 5280 nM; in [3], 6460 nM; in test [4], 3310 nM; in test [5], 2780 nM; in test [6] it was 5 µM; in test [7], 2960 nM. For the same compound, the values for the GI50 in [8], in test [9] and in [10] were 14.1 µM, 6 µM and 14700 nM, respectively. Also, the TGI in [2] is > 100 µM; in test [3] it was 62.9 µM; in [4], 73.7 µM; in test [5], 10.7 µM; in test [6] it was 36.6 µM; in [7], 16.6 µM. Also, the values for the TGI in test [8], in test [9] and in test [10] were 35.8 µM, 52.3 µM and 46.9 µM, respectively.
Take `CN(C)c1ccc(/C=c2/c3cc(O)ccc3n3c2cc(-c2ccccc2)[n+]3C)cc1`: the GI50 in [1] is 187 nM; in test [5], 1100 nM; in test [8], 6.04 µM. Besides, the TGI in [2] is 1.47 µM; in [3], 2.29 µM; in test [4] it was 2.25 µM; in test [6] it was 4.37 µM; in test [8], > 100 µM; in [9], 1.25 µM. The same compound registered a TGI in [10] of 1.75 µM.
